# Results as given in patent publication US8232315B2, “Methods for treating drug addiction and improving addiction-related behavior” (SK Biopharmaceuticals Co., Ltd., priority 2009, dated 2012).
# System: monkeys trained to discriminate cocaine (0.40 mg/kg) from saline
# Experiment: Cocaine drug discrimination (substitution protocol) in rhesus monkeys
# Type: in vivo, rhesus monkeys (Macaca mulatta)
# Conditions: 0.40 mg/kg cocaine i.m.; training days preceding test days
# Source text: Subjects: The subjects were four male rhesus monkeys (Macaca mulatta) each weighing 7.0-8.0 kg. Each monkey was maintained on a diet of 7-12 monkey biscuits (Purina Monkey Chow Jumbo #5037) and one piece of fresh fruit per day. During the week, all food was delivered after the experimental session, whereas on weekends, food was delivered between 9 a.m. and noon. Water was freely available at all times. The room in which the monkeys were housed was maintained on a 12-hr light/dark cycle, with lights on from 7 a.m. to 7 p.m.
# Apparatus: Each monkey was housed individually in a well-ventilated, stainless steel chamber (56×71×69 cm). The home cages of all monkeys were modified to include an operant panel (28×28 cm) mounted on the front wall. Three square translucent response keys (6.4×6.4 cm) were arranged 2.54 cm apart in a horizontal row 3.2 cm from the top of the operant panel. Each key could be transilluminated by red or green stimulus lights (Superbright LED'S). In addition, the operant panel supported an externally mounted pellet dispenser (Gerbrands, Model G53 10, Arlington, Mass.) that delivered 1 gm fruit-flavored food pellets (Precision Primate Pellets Formula L/I Banana Flavor, P. J. Noyes Co., Lancaster, N.H.) to a food receptacle mounted on the cage beneath the operant response panel. Operation of the operant panels and data collection were accomplished with IBM-compatible computers and interface systems (MedAssociates; St. Albans, Vt.) located in a separate room.
# Discrimination Training: Discrimination training was conducted 5 days per week during daily sessions composed of multiple cycles. Each cycle consisted of a 15-min time-out period followed by a 5-min response period. During the time-out, all stimulus lights were off, and responding had no scheduled consequences. During the response period, the right and left response keys were transilluminated red or green, and monkeys could earn up to 10 food pellets by responding under a FR 30 schedule of food presentation. For all four monkeys in this study, the left key was illuminated green, and the right key was illuminated red. The center key was not illuminated at any time, and responding on the center key had no scheduled consequences. If all available food pellets were delivered before the end of the 5-min response period, the stimulus lights transilluminating the response keys were turned off, and responding had no scheduled consequences for the remainder of the 5-min period.
# On training days, monkeys were given an i.m. injection of either saline or 0.40 mg/kg cocaine 5-min after the beginning of each time-out period (i.e., 10 min before the response period). Following the administration of saline, responding on only the green key (the saline-appropriate key) produced food, whereas following administration of 0.40 mg/kg cocaine, only responding on the red key (the drug-appropriate key) produced food. Responses on the inappropriate key reset the FR requirement on the appropriate key. Sessions consisted of 1 to 5 cycles, and if the training dose of cocaine was administered, it was administered only during the last cycle. Thus, training days consisted of 0 to 5 saline cycles followed by 0 to 1 drug cycles.
# During each response period, 3 dependent variables were determined using the following equations.
# 1) Percent injection-appropriate responding prior to delivery of the first reinforcer.
# 2) Percent injection-appropriate responding for the entire response period.
# Monkeys were considered to have acquired cocaine discrimination when the following three criteria were met for 7 of 8 consecutive training sessions: 1) the percent injection-appropriate responding prior to delivery of the first reinforcer was greater than or equal to 80% for all cycles; 2) the percent injection-appropriate responding for the entire cycle was greater than or equal to 90% for all cycles; 3) response rates during saline training cycles were greater than 0.5 responses per second. […]
smiles,measurement,value
"COC(=O)[C@H]1[C@@H](OC(=O)c2ccccc2)C[C@@H]2CC[C@H]1N2C [cocaine, reference compound]",Mean response rate during drug training cycles,2.58 (±0.67) responses/sec
